Measured values: the NIST ThermoML archive (doi:10.1021/je800026p)

Test: xn = mol fraction of the nth substance listed
Conditions: 101 kPa, Liquid; for mass density: Vibrating tube method; for speed of sound: Sing-around technique in a fixed-path interferometer

CCCCCCOCCOCCO [2-(2-hexyloxyethoxy)ethanol] + CCCCNCCCC
Conditions | mass density, 298.15 K [kg/m3] | mass density, 303.15 K [kg/m3] | mass density, 308.15 K [kg/m3] | speed of sound, 303.15 K [m/s] | speed of sound, 308.15 K [m/s]
x1 = 0.0974 | 779.614 | 775.187 | 771.079 | 1243.7 | 1225.3
x1 = 0.1441 | 789.859 | 785.667 | 781.545 | 1251 | 1232.2
x1 = 0.1908 | 799.885 | 795.785 | 791.662 | 1258.2 | 1239.2
x1 = 0.253 | 812.825 | 808.731 | 804.6 | 1267.7 | 1248.7
x1 = 0.2986 | 821.948 | 817.838 | 813.671 | 1274.5 | 1255.5
x1 = 0.3606 | 833.834 | 829.692 | 825.52 | 1283.4 | 1264.8
x1 = 0.4018 | 841.423 | 837.274 | 833.078 | 1289.3 | 1270.9
x1 = 0.4584 | 851.46 | 847.291 | 843.095 | 1297 | 1279.1
x1 = 0.5091 | 860.074 | 855.914 | 851.724 | 1303.8 | 1286.2
x1 = 0.5435 | 865.751 | 861.602 | 857.401 | 1308.2 | 1290.8
x1 = 0.587 | 872.72 | 868.58 | 864.406 | 1313.6 | 1296.5
x1 = 0.6097 | 876.278 | 872.165 | 867.972 | 1316.4 | 1299.4
x1 = 0.6572 | 883.547 | 879.461 | 875.302 | 1322 | 1305
x1 = 0.7023 | 890.259 | 886.201 | 882.052 | 1327 | 1310.1
x1 = 0.7451 | 896.459 | 892.397 | 888.281 | 1331.6 | 1314.5
x1 = 0.8144 | 906.103 | 902.062 | 897.98 | 1338.5 | 1320.9
x1 = 0.8675 | 913.137 | 909.095 | 905.045 | 1343.3 | 1325
x1 = 0.9083 | 918.3 | 914.27 | 910.231 | 1346.8 | 1327.7
x1 = 0.9414 | 922.323 | 918.281 | 914.269 | 1349.3 | 1329.5
